Source: ChEMBL document CHEMBL5291721, “A preclinical secondary pharmacology resource illuminates target-adverse drug reaction associations of marketed drugs” (Nat Commun, 2023)

What was measured:
[1] = target: T1, Alpha-1A adrenergic receptor (Homo sapiens, UniProt P35348)
T1 sequence (P35348 whole entry): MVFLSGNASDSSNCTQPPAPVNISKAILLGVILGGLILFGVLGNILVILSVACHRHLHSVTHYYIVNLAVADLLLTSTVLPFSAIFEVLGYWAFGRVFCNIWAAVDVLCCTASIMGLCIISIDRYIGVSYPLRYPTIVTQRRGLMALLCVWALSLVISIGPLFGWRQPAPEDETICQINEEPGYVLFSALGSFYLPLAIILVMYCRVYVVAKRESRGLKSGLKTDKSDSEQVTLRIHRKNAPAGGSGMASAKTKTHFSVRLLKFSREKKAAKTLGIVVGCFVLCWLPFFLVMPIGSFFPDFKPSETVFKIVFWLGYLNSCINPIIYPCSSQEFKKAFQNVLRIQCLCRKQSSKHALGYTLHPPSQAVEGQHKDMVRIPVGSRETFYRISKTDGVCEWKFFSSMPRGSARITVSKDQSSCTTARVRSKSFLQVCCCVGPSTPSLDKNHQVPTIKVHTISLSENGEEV

[2] = target: T2, Gastric inhibitory polypeptide receptor (Homo sapiens, UniProt P48546)
T2 sequence (P48546 whole entry): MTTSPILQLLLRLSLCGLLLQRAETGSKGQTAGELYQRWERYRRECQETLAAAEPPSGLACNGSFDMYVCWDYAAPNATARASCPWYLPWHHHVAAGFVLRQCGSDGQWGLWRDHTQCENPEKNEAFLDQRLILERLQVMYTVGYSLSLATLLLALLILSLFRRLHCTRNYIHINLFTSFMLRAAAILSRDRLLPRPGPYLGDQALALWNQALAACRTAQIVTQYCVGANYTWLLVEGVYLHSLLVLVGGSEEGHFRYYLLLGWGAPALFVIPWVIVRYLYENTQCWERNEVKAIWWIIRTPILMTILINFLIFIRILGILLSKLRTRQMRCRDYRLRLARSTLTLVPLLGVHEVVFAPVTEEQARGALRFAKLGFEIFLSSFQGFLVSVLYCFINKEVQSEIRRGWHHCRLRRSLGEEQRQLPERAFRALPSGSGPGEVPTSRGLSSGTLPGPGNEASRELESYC

D(4) dopamine receptor = target: T3, D(4) dopamine receptor (Homo sapiens, UniProt P21917)
T3 sequence (P21917 whole entry): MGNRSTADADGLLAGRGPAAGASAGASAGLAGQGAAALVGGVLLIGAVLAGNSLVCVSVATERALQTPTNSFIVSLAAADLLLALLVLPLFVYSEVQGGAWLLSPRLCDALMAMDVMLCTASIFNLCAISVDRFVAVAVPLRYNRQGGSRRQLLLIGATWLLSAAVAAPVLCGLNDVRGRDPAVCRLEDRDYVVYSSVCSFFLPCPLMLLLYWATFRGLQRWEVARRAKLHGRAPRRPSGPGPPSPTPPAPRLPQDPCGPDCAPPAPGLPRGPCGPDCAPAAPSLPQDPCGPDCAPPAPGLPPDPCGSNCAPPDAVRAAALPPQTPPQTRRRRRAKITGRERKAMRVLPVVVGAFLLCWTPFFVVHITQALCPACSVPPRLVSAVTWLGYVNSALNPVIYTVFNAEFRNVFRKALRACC

Estrogen receptor beta = Estrogen receptor beta (Homo sapiens, UniProt Q92731)
Estrogen receptor beta, sequence (Q92731 whole entry): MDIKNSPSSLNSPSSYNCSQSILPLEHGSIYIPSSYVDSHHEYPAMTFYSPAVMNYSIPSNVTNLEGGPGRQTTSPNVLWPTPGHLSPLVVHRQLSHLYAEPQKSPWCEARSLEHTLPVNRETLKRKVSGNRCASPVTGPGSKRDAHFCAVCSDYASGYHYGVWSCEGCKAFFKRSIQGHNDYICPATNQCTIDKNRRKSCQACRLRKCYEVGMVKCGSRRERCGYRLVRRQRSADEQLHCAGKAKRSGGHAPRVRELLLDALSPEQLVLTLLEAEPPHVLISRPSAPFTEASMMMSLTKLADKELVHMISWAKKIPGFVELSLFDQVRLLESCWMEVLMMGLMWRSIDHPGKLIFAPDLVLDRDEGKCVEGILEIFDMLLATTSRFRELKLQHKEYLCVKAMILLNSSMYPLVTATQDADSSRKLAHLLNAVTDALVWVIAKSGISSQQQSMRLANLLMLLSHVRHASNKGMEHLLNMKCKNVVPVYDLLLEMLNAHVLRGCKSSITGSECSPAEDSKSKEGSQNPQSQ

[3] = target: T4, Alpha-2A adrenergic receptor (Homo sapiens, UniProt P08913)
T4 sequence (P08913 whole entry): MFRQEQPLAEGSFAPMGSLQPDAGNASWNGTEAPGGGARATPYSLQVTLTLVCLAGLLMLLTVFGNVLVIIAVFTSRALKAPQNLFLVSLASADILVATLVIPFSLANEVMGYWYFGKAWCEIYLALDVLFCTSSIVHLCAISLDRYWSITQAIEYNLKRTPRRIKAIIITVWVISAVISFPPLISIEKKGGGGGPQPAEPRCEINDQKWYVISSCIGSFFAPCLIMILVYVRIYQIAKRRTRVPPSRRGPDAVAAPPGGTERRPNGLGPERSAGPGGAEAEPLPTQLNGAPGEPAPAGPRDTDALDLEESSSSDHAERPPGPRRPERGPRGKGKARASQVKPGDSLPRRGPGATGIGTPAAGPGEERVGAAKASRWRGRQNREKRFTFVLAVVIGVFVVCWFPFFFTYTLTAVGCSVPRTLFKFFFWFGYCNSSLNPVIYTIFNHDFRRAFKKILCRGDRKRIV

D(1A) dopamine receptor = D(1A) dopamine receptor (Homo sapiens, UniProt P21728)
D(1A) dopamine receptor, sequence (P21728 whole entry): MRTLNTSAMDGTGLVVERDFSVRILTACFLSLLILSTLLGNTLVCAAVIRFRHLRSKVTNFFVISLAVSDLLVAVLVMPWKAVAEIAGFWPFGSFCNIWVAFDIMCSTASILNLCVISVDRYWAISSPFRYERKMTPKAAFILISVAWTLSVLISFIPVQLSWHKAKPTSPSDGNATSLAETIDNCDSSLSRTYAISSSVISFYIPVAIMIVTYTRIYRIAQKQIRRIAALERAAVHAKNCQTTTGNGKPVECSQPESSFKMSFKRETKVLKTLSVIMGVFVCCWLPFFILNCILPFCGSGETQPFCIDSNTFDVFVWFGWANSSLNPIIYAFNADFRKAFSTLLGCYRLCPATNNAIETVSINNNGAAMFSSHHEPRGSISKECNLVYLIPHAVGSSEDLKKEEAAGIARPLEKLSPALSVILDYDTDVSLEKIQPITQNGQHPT

Glucagon receptor = Glucagon receptor (Homo sapiens, UniProt P47871)
Glucagon receptor, sequence (P47871 whole entry): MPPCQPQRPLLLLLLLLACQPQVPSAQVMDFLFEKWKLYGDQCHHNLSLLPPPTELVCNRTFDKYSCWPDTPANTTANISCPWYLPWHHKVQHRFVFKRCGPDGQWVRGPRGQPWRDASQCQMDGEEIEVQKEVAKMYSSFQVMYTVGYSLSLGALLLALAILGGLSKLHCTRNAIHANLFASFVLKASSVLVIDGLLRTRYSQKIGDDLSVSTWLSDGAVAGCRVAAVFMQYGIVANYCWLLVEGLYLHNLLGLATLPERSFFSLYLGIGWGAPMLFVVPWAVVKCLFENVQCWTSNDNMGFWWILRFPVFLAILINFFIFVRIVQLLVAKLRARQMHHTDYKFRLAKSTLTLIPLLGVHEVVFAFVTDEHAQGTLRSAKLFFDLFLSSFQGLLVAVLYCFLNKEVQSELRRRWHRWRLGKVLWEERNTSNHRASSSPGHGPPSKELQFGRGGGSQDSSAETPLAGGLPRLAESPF

Androgen receptor = target: T5, Androgen receptor (Rattus norvegicus, UniProt P15207)
T5 sequence (P15207 whole entry): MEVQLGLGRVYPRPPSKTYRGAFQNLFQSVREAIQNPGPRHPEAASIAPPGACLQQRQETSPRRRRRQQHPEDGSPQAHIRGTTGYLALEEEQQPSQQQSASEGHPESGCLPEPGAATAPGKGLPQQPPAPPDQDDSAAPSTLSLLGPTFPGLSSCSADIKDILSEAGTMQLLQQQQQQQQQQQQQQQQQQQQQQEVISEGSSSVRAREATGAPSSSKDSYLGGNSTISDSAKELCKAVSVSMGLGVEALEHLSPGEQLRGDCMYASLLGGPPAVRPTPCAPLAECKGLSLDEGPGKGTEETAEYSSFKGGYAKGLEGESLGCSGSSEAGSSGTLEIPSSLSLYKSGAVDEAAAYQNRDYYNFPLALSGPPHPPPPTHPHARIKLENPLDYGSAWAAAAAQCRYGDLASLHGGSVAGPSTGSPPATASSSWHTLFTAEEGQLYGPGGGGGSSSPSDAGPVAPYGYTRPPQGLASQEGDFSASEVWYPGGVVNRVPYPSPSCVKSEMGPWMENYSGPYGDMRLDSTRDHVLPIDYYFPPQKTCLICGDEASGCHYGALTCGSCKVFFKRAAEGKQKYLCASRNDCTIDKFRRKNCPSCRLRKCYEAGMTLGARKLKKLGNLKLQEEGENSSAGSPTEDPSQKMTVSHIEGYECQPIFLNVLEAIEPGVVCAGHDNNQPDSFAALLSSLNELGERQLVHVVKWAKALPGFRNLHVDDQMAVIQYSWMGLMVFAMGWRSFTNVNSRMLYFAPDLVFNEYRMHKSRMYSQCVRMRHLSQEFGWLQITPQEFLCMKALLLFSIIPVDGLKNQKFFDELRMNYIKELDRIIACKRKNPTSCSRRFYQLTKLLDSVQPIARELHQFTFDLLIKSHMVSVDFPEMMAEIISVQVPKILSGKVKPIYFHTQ
Note: assay procedure not described here.

SMILES	AC50 [1] [µM]	AC50 [2] [µM]	AC50 (D(4) dopamine receptor) [µM]	AC50 (Estrogen receptor beta) [µM]	AC50 [3] [µM]	AC50 (D(1A) dopamine receptor) [µM]	AC50 (Glucagon receptor) [µM]	AC50 (Androgen receptor) [µM]
O=C(O)[C@@H](S)[C@@H](S)C(=O)O	> 30							
CCOC(=O)[C@H](CCc1ccccc1)N[C@@H](C)C(=O)N1Cc2ccccc2C[C@H]1C(=O)O		> 30	> 10	> 30	> 10	> 10	> 30	
C=CC1=C(C(=O)O)N2C(=O)[C@@H](NC(=O)/C(=N\O)c3csc(N)n3)[C@H]2SC1								> 30
CC#CC(=O)N1CCC[C@H]1c1nc(-c2ccc(C(=O)Nc3ccccn3)cc2)c2c(N)nccn12 [ACALABRUTINIB]	> 30							
O=C(O)COC(=O)Cc1ccccc1Nc1c(Cl)cccc1Cl [ACECLOFENAC]								> 30
CN(C)CCC=C1c2ccccc2CCc2ccccc21 [AMITRIPTYLINE]		> 30	0.819	> 30	2.92	0.452	> 30	
CC(=O)Oc1ccccc1C(=O)O [ASPIRIN]		> 30	> 10	> 30	> 10	> 10	> 30	> 30
C[C@H](CS)C(=O)N1CCC[C@H]1C(=O)O [CAPTOPRIL]					> 10			> 30
O=C(Cc1cccs1)N[C@@H]1C(=O)N2C(C(=O)[O-])=C(C[n+]3ccccc3)CS[C@H]12 [CEPHALORIDINE]	> 30							
CN(C)CCCC1(c2ccc(F)cc2)OCc2cc(C#N)ccc21 (configuration not stated) [CITALOPRAM]		> 30	> 10	> 30	> 10		> 30	
C[C@H](Nc1ncnc2[nH]cnc12)c1cc2cccc(Cl)c2c(=O)n1-c1ccccc1 [DUVELISIB]	> 30							
C[C@]12CCC(=O)C=C1CC[C@H]1[C@@H]3CC[C@](O)(C(=O)CO)[C@@]3(C)C[C@H](O)[C@@]12F [FLUDROCORTISONE]		> 30		> 30	> 10	> 10	> 30	
NCC1(CC(=O)O)CCCCC1 [GABAPENTIN]		> 30	> 10		> 10	> 10	> 30	
OCCOCCN1CCN(C(c2ccccc2)c2ccc(Cl)cc2)CC1 (configuration not stated) [HYDROXYZINE]		> 30	8.54		12.8	> 10	> 30	
Nc1nnc(-c2cccc(Cl)c2Cl)c(N)n1 [LAMOTRIGINE]		> 30	> 10	> 30	> 10	> 10	> 30	
CCCCCCO[C@@H](C)c1cccc(-c2csc(NC(=O)c3cc(Cl)c(/C=C(\C)C(=O)O)c(Cl)c3)n2)c1OC [LUSUTROMBOPAG]	> 30							
C#CCN(C)Cc1ccccc1 [PARGYLINE]	> 30							
CC(=O)SCC(Cc1ccccc1)C(=O)NCC(=O)OCc1ccccc1 (configuration not stated) [RACECADOTRIL]					> 10	> 10		
C[C@H](Cn1cnc2c(N)ncnc21)OCP(=O)(O)O [TENOFOVIR ANHYDROUS]								> 30
Cc1c(C)c2c(c(C)c1O)CCC(C)(COc1ccc(CC3SC(=O)NC3=O)cc1)O2 (configuration not stated) [TROGLITAZONE]		> 30		> 30			> 30	3.57
